Laboratory results as given in ChEMBL document CHEMBL4350985, “1,3-Dioxane as a scaffold for potent and selective 5-HT1AR agonist with in-vivo anxiolytic, anti-depressant and anti-nociceptive activity” (Eur J Med Chem, 2019).
Calls of active or inactive are those of the source. The rule behind the calls is not given here.

What was measured:
[1] = target: T1, 5-hydroxytryptamine receptor 1A (Homo sapiens) (UniProt P08908); conditions: HeLa
T1 sequence (whole entry): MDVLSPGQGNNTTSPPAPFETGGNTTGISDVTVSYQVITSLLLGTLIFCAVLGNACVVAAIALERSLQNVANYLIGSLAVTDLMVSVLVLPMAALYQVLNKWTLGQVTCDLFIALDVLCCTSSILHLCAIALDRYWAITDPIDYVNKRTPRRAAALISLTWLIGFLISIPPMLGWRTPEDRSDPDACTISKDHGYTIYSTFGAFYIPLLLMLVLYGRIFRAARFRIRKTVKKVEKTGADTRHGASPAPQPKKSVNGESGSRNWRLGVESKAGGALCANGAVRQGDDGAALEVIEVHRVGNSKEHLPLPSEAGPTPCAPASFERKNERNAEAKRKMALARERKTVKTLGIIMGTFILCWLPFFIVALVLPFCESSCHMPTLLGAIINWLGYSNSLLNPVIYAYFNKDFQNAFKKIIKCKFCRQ

[2] = target: T2, Alpha-1D adrenergic receptor (Homo sapiens, UniProt P25100); experiment: biochemical
T2 sequence (P25100 whole entry): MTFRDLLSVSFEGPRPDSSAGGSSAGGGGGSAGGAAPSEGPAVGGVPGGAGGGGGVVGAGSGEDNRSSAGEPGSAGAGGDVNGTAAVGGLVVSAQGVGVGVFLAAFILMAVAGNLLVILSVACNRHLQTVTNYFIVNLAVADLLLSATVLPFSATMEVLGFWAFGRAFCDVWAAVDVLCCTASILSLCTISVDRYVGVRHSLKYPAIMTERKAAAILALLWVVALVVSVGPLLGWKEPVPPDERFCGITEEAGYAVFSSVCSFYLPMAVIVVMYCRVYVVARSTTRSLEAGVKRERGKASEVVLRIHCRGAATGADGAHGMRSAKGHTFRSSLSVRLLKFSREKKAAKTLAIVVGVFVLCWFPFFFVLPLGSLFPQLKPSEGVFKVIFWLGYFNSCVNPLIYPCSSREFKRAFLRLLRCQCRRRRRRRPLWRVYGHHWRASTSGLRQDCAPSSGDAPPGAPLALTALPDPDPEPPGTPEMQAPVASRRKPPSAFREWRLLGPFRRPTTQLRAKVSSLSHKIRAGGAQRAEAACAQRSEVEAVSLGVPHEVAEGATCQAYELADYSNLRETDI
Description: Displacement of [3H] prazosin from human cloned adrenoceptor alpha 1D expressed in CHO cell membrane incubated for 30 mins by liquid scintillation counter

[3] = target: T3, Alpha-1B adrenergic receptor (Rattus norvegicus) (UniProt P15823); experiment: Antagonist activity at alpha-1b adrenergic receptor in Wistar rat spleen assessed as inhibition of (-)-phenylephrine-induced contraction; assay type: tissue-based
T3 sequence (whole entry): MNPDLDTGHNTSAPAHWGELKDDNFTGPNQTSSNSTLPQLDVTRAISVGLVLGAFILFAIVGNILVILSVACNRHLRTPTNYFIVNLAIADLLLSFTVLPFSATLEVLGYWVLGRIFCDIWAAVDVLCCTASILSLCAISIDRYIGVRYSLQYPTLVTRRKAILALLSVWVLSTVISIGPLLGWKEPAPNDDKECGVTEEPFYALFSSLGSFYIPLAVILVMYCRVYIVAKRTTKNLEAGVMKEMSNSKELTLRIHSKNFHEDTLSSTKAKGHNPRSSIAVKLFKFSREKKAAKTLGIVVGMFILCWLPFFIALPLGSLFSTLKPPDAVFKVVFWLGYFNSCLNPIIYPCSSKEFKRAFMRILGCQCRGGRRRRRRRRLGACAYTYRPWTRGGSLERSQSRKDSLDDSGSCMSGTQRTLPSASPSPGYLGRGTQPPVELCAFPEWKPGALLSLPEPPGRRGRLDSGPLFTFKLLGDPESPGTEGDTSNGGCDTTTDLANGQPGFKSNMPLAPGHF

[4] = AUC (0 to infinity) in Sprague-Dawley rat brain at 10 mg/kg, po measured upto 480 mins by LC/MS-MS analysis; assay type: ADME, organism-based; set-up: dose 10 mg/kg, time infinity, route oral; conditions: in vivo, 8 h
[5] = Ratio of drug level in brain to plasma in Sprague-Dawley rat at 10 mg/kg, po measured upto 480 mins by LC/MS-MS analysis; assay type: ADME, organism-based; conditions: read-out: BPR
[6] = Tmax in Sprague-Dawley rat brain at 10 mg/kg, po measured upto 480 mins by LC/MS-MS analysis; assay type: ADME, organism-based
[7] = Apparent permeability from basolateral to apical side in dog MDCK2-MDR1 cells incubated for 120 mins by UV-visible spectrophotometry; assay type: ADME, cell-based, Canis lupus familiaris; conditions: MDCK-MDR1
[8] = species: Homo sapiens; experiment: Selectivity ratio of pKi for human cloned 5HT-1AR transfected in HeLa cells to pKi for human cloned adrenoceptor alpha 1D expressed in CHO cell membrane; assay type: cell-based
[9] = tested on: Rattus norvegicus; experiment: Anxiolytic activity at Sprague-Dawley rat assessed as increase in time spent in open arm at 20 mg/kg, po by EPM test relative to control; assay type: functional
[10] = Tmax in Sprague-Dawley rat plasma at 10 mg/kg, po measured upto 480 mins by LC/MS-MS analysis; assay type: ADME, organism-based
[11] = AUC (0 to t) in Sprague-Dawley rat plasma at 10 mg/kg, po measured upto 480 mins by LC/MS-MS analysis; assay type: ADME, organism-based; conditions: in vivo, 8 h
[12] = Half life in Sprague-Dawley rat brain at 10 mg/kg, po measured after 15 to 45 mins by LC/MS-MS analysis; assay type: ADME, organism-based
[13] = tested on: Rattus norvegicus; experiment: Effect on locomotory activity in Sprague-Dawley rat assessed as distance travelled at 10 mg/kg, po by open field test; assay type: functional, organism-based
[14] = tested on: Rattus norvegicus; experiment: Anxiolytic activity in at Sprague-Dawley rat assessed as increase in time spent in central area of open field at 10 mg/kg, po by open field test; assay type: functional, organism-based
[15] = tested on: Rattus norvegicus; experiment: Antidepressant activity in Sprague-Dawley rat assessed as decrease in time of immobilization at 10 and 20 mg/kg, po by forced swim test; assay type: functional, organism-based
[16] = Cmax in Sprague-Dawley rat brain at 10 mg/kg, po measured upto 480 mins by LC/MS-MS analysis; assay type: ADME, organism-based; set-up: dose 10 mg/kg, route oral; conditions: in vivo, 8 h
[17] = tested on: Rattus norvegicus; experiment: Antidepressant activity in Sprague-Dawley rat assessed as time spent on climbing at 5 to 20 mg/kg, po by forced swim test; assay type: functional, organism-based
[18] = tested on: SH-SY5Y; experiment: Neuroprotective activity against H2O2-induced cell death in human SH-SY5Y cells at 1 uM incubated for 24 hrs by MTT assay; assay type: functional
[19] = tested on: Rattus norvegicus; experiment: Anxiolytic activity in at Sprague-Dawley rat assessed as increase in number of entries into central area of open field at 10 mg/kg, po by open field test; assay type: functional, organism-based
[20] = tested on: Rattus norvegicus; experiment: Anxiolytic activity at Sprague-Dawley rat assessed as increase in time spent in open arm at 10 mg/kg, po by EPM test relative to control; assay type: functional
[21] = tested on: SH-SY5Y; experiment: Cytotoxicity against human SH-SY5Y cells assessed as reduction in cell viability incubated for 24 hrs by MTT assay; assay type: cell-based
[22] = Cmax in Sprague-Dawley rat plasma at 10 mg/kg, po measured upto 480 mins by LC/MS-MS analysis; assay type: ADME, organism-based; set-up: dose 10 mg/kg, route oral
[23] = tested on: SH-SY5Y; experiment: Neuroprotective activity against H2O2-induced cell death in human SH-SY5Y cells at 0.1 uM incubated for 24 hrs by MTT assay; assay type: functional

pD2 [1]	Ki [2] [µM]	pKb [3]	Structure (SMILES)	further results
5.87	0.178	6.76	c1ccc(OCCNCC2COC(c3ccccc3)(c3ccccc3)OC2)cc1	
8.49	0.00102	7.19	COc1ccccc1OCCNCC1CCOC(c2ccccc2)(c2ccccc2)O1 (stereo not drawn)	
7.85	0.0012	7.01	c1ccc(OCCNCCOC(c2ccccc2)c2ccccc2)cc1	
7.38	0.01	7.11	COc1ccccc1OCCNCCOC(c1ccccc1)c1ccccc1	
7.51	0.0575	6.98	OCC(CNCCOc1ccccc1)OC(c1ccccc1)c1ccccc1 (stereo not drawn)	
6.24	0.0158	7.13	COc1ccccc1OCCNCC[C@H]1CO[C@H](C(c2ccccc2)c2ccccc2)O1 (relative stereo)	
6.16	0.00575	6.93	COc1ccccc1OCCNCCC1COC(c2ccccc2)(c2ccccc2)O1 (stereo not drawn)	
7.53	0.00589	7.02	COc1ccccc1OCCNCC(CO)OC(c1ccccc1)c1ccccc1 (stereo not drawn)	
5.86	0.0166	6.91	COc1ccccc1OCCNCC[C@@H]1CO[C@H](C(c2ccccc2)c2ccccc2)O1 (relative stereo)	
7.85	0.00501	6.97	c1ccc(OCCNCC2CCOC(c3ccccc3)(c3ccccc3)O2)cc1 (stereo not drawn)	

Structure (SMILES)	pD2 [1]	Ki [2] [µM]	pKb [3]	further results
COc1ccccc1OCCNCC1COC(c2ccccc2)(c2ccccc2)OC1.O=C(O)C(=O)O	9.22	0.0251	6.8	AUC [4]: 7173.4 nmol·min/g; Kp at 8 h [5]: 420; Tmax [6]: 60 min; Papp B→A at 2 h [7]: 12.6 ×10⁻⁶ cm/s; Ratio pKi [8]: 16; Activity [9]: 18%; Tmax [10]: 30 min; AUCt [11]: 17.4 nmol·min/g; half-life [12]: 6.2 min; Activity [13]: inactive; Activity [14]: Active; inhibition [15]: Active; Cmax [16]: 157.9 nmol/g; Activity [17]: inactive; Activity [18]: 79%; Activity [19]: Active; Activity [20]: 20%; IC50 [21]: 31.2 µM; Cmax [22]: 95 nM; Activity [23]: 89%
